Legend:
[1] = Phase 1 and Phase 2 clinical trials of TSC, safety; format: in vivo; settings: 148 human subjects
Excerpt: A Phase ½ clinical trial was recently completed examining TSC in patients with GBM. The Phase ½ clinical trial in GBM enrolled 59 patients with newly diagnosed disease that received TSC in conjunction with radiation therapy (RT) and temozolomide (TMZ). In the Phase I portion of the trial TSC was initially administered three times per week at half-dose to three patients prior to radiation. Six additional patients received full dose TSC for six weeks in combination with radiation. […] Fifty additional patients were enrolled in the Phase II trial at full dose TSC in combination with TMZ and RT. Four weeks after completion of RT, all patients resumed TMZ for five days every four weeks, but no further TSC was administered.

[2] = system: Cancer: Radiation Sensitizer; assay: Pre-clinical efficacy study: Cancer: Radiation Sensitizer; format: in vivo
Excerpt: (§1) It has also been determined that several non-cancer disorders are beneficially treated utilizing an administration regimen of a bipolar trans carotenoid such as TSC, as described below.

[3] = Absorption into blood stream after intramuscular injection with gamma cyclodextrin; format: in vivo, rat; settings: injected intramuscularly, rats
Excerpt: The use of gamma-cyclodextrin with TSC increases the solubility of TSC in water by 3-7 times. […] The incorporation of the gamma cyclodextrin also allows for TSC to be absorbed into the blood stream when injected intramuscularly. Absorption is quick, and efficacious blood levels of TSC are reached quickly (as shown in rats).

Wound Healing = assay: Pre-clinical efficacy study: Wound Healing; format: in vivo; settings: Pig
Excerpt: as §1

Myocardial Infarction = assay: Pre-clinical efficacy study: Myocardial Infarction; format: in vivo; settings: Pig
Excerpt: as §1

Cancer Chemosensitizer = assay: Pre-clinical efficacy study: Cancer Chemosensitizer; format: in vivo; settings: Rat
Excerpt: as §1

newly diagnosed GBM = assay: Phase ½ clinical trial of TSC with RT and TMZ in GBM; format: in vivo, human; settings: for Observed Survival Rate with TSC Treatment (Kaplan-Meier): TSC 0.25 mg/kg IV 3 times per week about 45 minutes prior to RT, plus TMZ
Excerpt: To date, TSC has been used in 148 human subjects […] […] A Phase 1⁄2 clinical trial was recently completed examining TSC in patients with GBM. The Phase 1⁄2 clinical trial in GBM enrolled 59 patients with newly diagnosed disease that received TSC in conjunction with radiation therapy (RT) and temozolomide (TMZ). In the Phase I portion of the trial TSC was initially administered three times per week at half-dose to three patients prior to radiation. Six additional patients received full dose TSC for six weeks in combination with radiation. […] Fifty additional patients were enrolled in the Phase II trial at full dose TSC in combination with TMZ and RT. Four weeks after completion of RT, all patients resumed TMZ for five days every four weeks, but no further TSC was administered. More specifically, fifty-nine patients with newly-diagnosed GBM were enrolled. Patients received standard of care (SOC) radiation therapy (RT) (2 Gy/day, 5 days/week for 6 weeks) and TMZ (75 mg/m2) starting within 5 weeks after a surgical resection of their tumor, if such surgery were possible. Patients receiving only needle biopsies (i.e., no surgery) were also enrolled. In addition to the SOC, TSC was administered 3 times per week, 0.25 mg/kg IV, usually on Monday, Wednesday and Friday, about 45 minutes prior to the RT sessions. Four weeks after completion of RT, patients began chemotherapy with TMZ for 5 days of the first week of a 4 week cycle. This continued for 6 such cycles. No TSC was administered during this chemotherapy.

Parkinson's Disease = assay: Pre-clinical efficacy study: Parkinson's Disease; format: in vivo; settings: Rat
Excerpt: as §1

VEGF A gene = assay: Expression of HIF1 targeted genes in hypoxic conditions; settings: gene upregulated with hypoxia
Excerpt: The subject disclosure relates to the treatment of various tumors and/or cancers (i.e., gliobastoma, pancreatic cancer, etc.). It is well established that tumors are hypoxic with many tumor types being highly hypoxic. Further, it is known that hypoxic tumors are more resistant to radiotherapy and chemotherapy. Through HIF1 alpha up-regulation, hypoxia is associated with multiple negative effects that lead to aggressive tumor phenotypes. These effects include increased angiogenesis, increased metastasis, as well as increased resistance to chemotherapy and radiation therapy. Hypoxia via HIF1a affects many genes involved in cancer progression. Bipolar trans carotenoids such as TSC alter expression of HIF1 targeted genes in hypoxic conditions.

hypoxic tissue = assay: Reoxygenation of hypoxic tissue after low and high dose; format: in vivo, human; settings: humans
Excerpt: With bipolar trans carotenoids such as TSC, there are discrete concentrations that produce efficacy in causing maximum oxygen partial pressure in animals or humans.

DMBA breast tumors = assay: DMBA breast tumor model, TSC before chemotherapy; format: in vivo

Compound: CC(/C=C/C=C(\C)C(=O)[O-])=C\C=C\C=C(C)\C=C\C=C(/C)C(=O)[O-].[Na+].[Na+] [TSC, trans sodium crocetinate]
- serious adverse events [1]: no serious adverse events reported
- Best Dosage ([2]; Mouse): Low
- Best Dosage ([2]; Rat): Low
- absorption into the blood stream [3]: quick
- Best Dosage (Wound Healing): High
- Best Dosage (Myocardial Infarction): Low
- Best Dosage (Cancer Chemosensitizer): High
- Observed Survival Rate with TSC Treatment (Kaplan-Meier) (newly diagnosed GBM; 1 year): 71.2%
- Observed Survival Rate with TSC Treatment (Kaplan-Meier) (newly diagnosed GBM; 2 years): 36.3%
- reduction in tumor size (newly diagnosed GBM; 37 patients with partial resection or no resection, MRI): vast majority of these 37 patients showed reduction in tumor size
- survival at 2 years vs historical controls (newly diagnosed GBM; all groups of patients administered TSC in addition to SOC treatment): better survival at 2 years
- survival greater than rate in historical trial (newly diagnosed GBM; at both 1 and 2 years): 10%
- survivability at two years (newly diagnosed GBM; biopsy-only patients): 42.9%
- patients showing complete elimination of tumors (newly diagnosed GBM; full-dose patients): ~20%
- effect on glioblastoma multiforme tumors (newly diagnosed GBM; low dose (0.25 mg/kg) 45 minutes before radiation): effective
- dose-limiting toxicities (newly diagnosed GBM; nine patients, Phase I portion, half-dose and full dose TSC with radiation): No dose-limiting toxicities were identified
- increase in chance of survival at two years (newly diagnosed GBM; subgroup of patients considered inoperable, vs control): over 100%
- alive at two years (newly diagnosed GBM; subgroup of patients considered inoperable, less than 20 percent in the control): 40%
- Best Dosage (Parkinson's Disease): High
- VEGF A gene expression (VEGF A gene): down regulated
- duration of maximum reoxygenation (hypoxic tissue; high dose of 0.75-2.0 mg/kg, e.g. 1.5 mg/kg): lasts for over an hour
- duration of maximum reoxygenation (hypoxic tissue; low dose of 0.15-0.35 mg/kg): lasts for a short time
- time of maximum reoxygenation of hypoxic tissue after injection (hypoxic tissue; low dose of 0.15-0.35 mg/kg, e.g. 0.25 mg/kg): 50 min
- effect on tumor volume with cisplatin (DMBA breast tumors; low dose (for rats) 0.1 mg/kg TSC IV 50 minutes before chemotherapy): not effective
- effect on tumor volume with gemcitabine (DMBA breast tumors; low dose of TSC 50 minutes before chemotherapy): not effective

From US11185523B2, “Use of bipolar trans carotenoids with chemotherapy and radiotherapy for treatment of cancer” (DIFFUSION PHARMACEUTICALS LLC, priority 2016, dated 2021)
